Reference: ChEMBL document CHEMBL1152598, “Synthesis and dopaminergic activity of some E-3-(piperidin-1-yl)-1-(4-substituted phenyl)prop-2-en-1-one derivatives” (2009)
Active and inactive are the calls of the source. The calls are words filed in the database; no cut-off is given here.

test system: Rattus norvegicus; assay: Dopaminergic activity in apomorphine-induced Wistar rat assessed as licking count at 0.5 mg/kg, iv treated 15 mins before apomorphine challenge measured after 10 mins for 60 mins by behavioral study; assay type: functional; settings: not given

| Structure (SMILES) | Activity |
| --- | --- |
| O=C(CCCN1CCC(O)(c2ccc(Cl)cc2)CC1)c1ccc(F)cc1 [HALOPERIDOL] | 3.667 |

test system: Rattus norvegicus; assay: Dopaminergic activity in apomorphine-induced Wistar rat assessed as licking count at 30 mg/kg, ip treated 15 mins before apomorphine challenge measured after 10 mins for 60 mins by behavioral study; settings: route intraperitoneal

| Structure (SMILES) | Activity |
| --- | --- |
| COc1ccc(C(=O)/C=C/N2CCC(O)(c3ccc(Cl)cc3)CC2)c(O)c1 | 1575 |
| O=C(/C=C/N1CCC(O)(c2ccccc2)CC1)c1ccc(O)cc1O | 1317 |
| O=C(/C=C/N1CCC(O)(c2ccc(O)cc2)CC1)c1ccc(O)cc1O | 1450 |
| COc1ccc(C(=O)/C=C/N2CCC(c3ccc(O)cc3)CC2)c(O)c1 | 1325 |
| O=C(/C=C/N1CCC(c2ccc(O)cc2)CC1)c1ccc(O)cc1O | 664 |
| O=C(/C=C/N1CCC(Cc2ccccc2)CC1)c1ccc(O)cc1O | 618 |
| COc1ccc(C(=O)/C=C/N2CCC(O)(c3ccc(Br)cc3)CC2)c(O)c1 | 1140 |
| COc1ccc(C(=O)/C=C/N2CCC(O)(c3ccc(O)cc3)CC2)c(O)c1 | 2675 |
| O=C(/C=C/N1CCC(O)(c2ccc(Br)cc2)CC1)c1ccc(O)cc1O | 1860 |
| O=C(/C=C/N1CCC(O)(c2ccc(Cl)cc2)CC1)c1ccc(O)cc1O | 115 |
| COc1ccc(C(=O)/C=C/N2CCC(O)(c3ccccc3)CC2)c(O)c1 | 1800 |
| COc1ccc(C(=O)/C=C/N2CCC(Cc3ccccc3)CC2)c(O)c1 | 520 |

test system: Rattus norvegicus; assay: Effect on dopaminergic activity in apomorphine-induced Wistar rat assessed as licking count at 10 to 30 mg/kg, ip treated 15 mins before apomorphine challenge measured after 10 mins for 60 mins by behavioral study; settings: not given

| Structure (SMILES) | Activity |
| --- | --- |
| O=C(/C=C/N1CCC(O)(c2ccc(Cl)cc2)CC1)c1ccc(O)cc1O | Active |
